According to patent US6590140B1, “Metal-regulated transporters and uses therefor” (Trustees of Dartmouth College, priority 1996, dated 2003):
“And” between values parts separate entries of the source, which are not always exact repeats. Equal values may be shown once.

Legend:
zrt1 mutant (ZHY1) cells = format: cell-based, Saccharomyces cerevisiae; details: for effect on zrt1 growth in LIM: 500 μM metal added to iron-limiting medium LIM (1 mM EDTA)
Experimental: Strains used were DY1457 (MATα ade6 can1 his3 leu2 trp1 ura3) and ZHY1 (MaTα ade6 can1 his3 leu2 trp1 ura3 zrt1:: LEU2). Yeast were grown in standard culture media (SD, YPD) (Eide, D., Davis-Kaplan S., Jordan, I., Sipe, D., and Kaplan, J. (199: 2) J. Biol. Chem. 267, 20774-20781) supplemented with necessary auxotrophic requirements and either 2% glucose or 2% galactose. A zinc-limiting medium (LZM) was prepared in the same manner as LIM (Eide and Guarenete (1992) J. Gen. Microbiol. 138:347-354) except that […]. Cell number in liquid cultures was determined by measuring the optical density of cell suspensions at 600 nm (A600) and converting to cell number with a standard curve.
Strains used were DY1457 (MATα ade6 can1 his3 leu2 trp1 ura3), ZHY1 (AMTα ade6 can1 his3 leu2 trp1 ura3 zrt1::LEU2), ZHY2 (MATα ade6 can1 his3 leu2 trp1 ura3 zrt2::HIS3), and ZHY3 (MATα ade6 can1 his3 leu2 trp1 ura3 zrt1::LEU2 zrt2::HIS3). Yeast were grown in YP or SD media (Sherman et al. (1986) Methods in Yeast Genetics, Cold Spring Harbor Laboratory, Cold Spring Harbor, N.Y.) supplemented with necessary auxotrophic requirements and either 2% glucose or 2% galactose. Zinc-limiting YP and SD agar plates contained either bathophenanthroline disulfonate (BPS, 200 μM) or EDTA (1 mM), respectively. A liquid zinc-limiting medium (low zinc medium, LZM) was prepared in the same manner as low iron medium (LIM) (Eide and Guarente (1992) J. Gen. Microbiol. 138:347-354) except that the […]. LZM is similar in composition to SD medium with two modifications essential to controlling zinc availability. First, 1 mM EDTA is added to provide buffering for the concentration of free metal ions. Second, the medium is pH-buffered at 4.2 with 20 mM citrate to prevent pH changes that could alter the metal binding ability of EDTA. LZM was also prepared without EDTA ([…]) which is less zinc-limiting because the predominant chelator in this medium, citrate, binds zinc with less affinity than does EDTA. The concentrations of free (i.e. unchelated) zinc were calculated using MAXCHELATOR software (Chris Patton, Stanford University). Cell number in liquid cultures was determined by measuring the absorbance of cell suspensions at 600 nm (OD600) and converting to cell number with a standard curve.
To examine the function of ZRT1, a disruption mutation, zrt1::LEU2, was constructed by inserting the LEU2 gene into the center of ZRT1 (FIG. 6). This zrt1 disruption allele was then introduced into a haploid yeast strain. […] Because of the high EDTA concentration in LIM (1 mM), this medium is expected to have low available levels of other metals that are bound tightly by this chelator. Supplements of other metals were tested for improved growth of the zrt1 mutant in LIM. […] To study this effect further, a low zinc medium, LZM, was developed in which cell growth could be limited by zinc deficiency and the growth response of the wild type and zrt1 mutant strains to increasing levels of supplemented zinc was examined. Wild type (DY1457, squares) and zrt1 mutant (ZHY1, circles) cells were inoculated into LZM supplemented with the indicated amount of ZnSO4 and grown for 16 hours prior to cell number determination. […] Mutant zrt1 cells attained this same maximum number of cell divisions only with zinc supplements of 750 μM or more, i.e. a 75-fold increase in the zinc requirement of the zrt1 mutant compared to the wild type.
To further assess the role of the low affinity system as a source of zinc, growth of wild type and zrt2 cells in a zinc-limiting medium, LZM, supplemented with increasing amounts of zinc was examined. The same strains as in FIG. 15 were grown for six hours in SD glucose medium, harvested, washed in LZM, and reinoculated into either LZM (FIG. 15A) or LZM-EDTA (FIG. 15B) supplemented with the indicated concentrations of ZnCl2 ([Zn]T). […]

IRT1 = molecular target: T1, IRT1 (Arabidopsis thaliana, UniProt Q38856); experiment: 55Fe uptake in fet3 fet4 yeast expressing IRT1; format: cell-based; details: metal at 100-fold excess
T1 construct: contain a single 1017 bp open reading frame capable of encoding a polypeptide of 339 amino acids; expressed in transfected cells; host or cells: S. cerevisiae fet3 fet4 strain DEY1453 carrying pIRT-1 (pFL61 library vector, phosphoglycerate kinase promoter)
T1 sequence (Q38856 9-347 limits assumed): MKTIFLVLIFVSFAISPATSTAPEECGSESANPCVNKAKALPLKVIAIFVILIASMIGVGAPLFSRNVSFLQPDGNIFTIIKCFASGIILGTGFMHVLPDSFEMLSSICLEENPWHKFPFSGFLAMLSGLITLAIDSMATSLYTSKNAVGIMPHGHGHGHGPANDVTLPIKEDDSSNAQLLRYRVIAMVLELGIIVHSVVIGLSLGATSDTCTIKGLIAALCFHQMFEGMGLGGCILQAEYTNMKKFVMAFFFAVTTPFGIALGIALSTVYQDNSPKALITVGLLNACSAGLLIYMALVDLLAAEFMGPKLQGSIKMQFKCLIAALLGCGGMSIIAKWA

SMILES | effect on zrt1 growth in LIM (zrt1 mutant (ZHY1) cells) | inhibition of IRT1-dependent iron uptake (IRT1) | increase in zinc requirement of zrt1 mutant compared to wild type (zrt1 mutant (ZHY1) cells; growth in zinc-limiting medium) | total zinc required for maximum number of cell divisions (zrt1 mutant (ZHY1) cells; zrt1, LZM) | total zinc for maximum number of divisions (zrt1 mutant (ZHY1) cells; zrt1, LZM-EDTA (LZM without EDTA), 16 hours) [µM] | calculated free zinc [Zn]F for maximum number of divisions (zrt1 mutant (ZHY1) cells; zrt1, LZM-EDTA, 16 hours) [nM] | growth rate versus untreated culture (zrt1 mutant (ZHY1) cells; zrt1 cells, SD glucose supplemented with 2 mM ZnCl2)
[Cl-].[Cl-].[Co+2] [Co] | no effect | inhibit IRT1-dependent iron uptake |  |  |  |  | 
[Zn+2] [zinc] | greatly enhanced growth | inhibit IRT1-dependent iron uptake | 75 fold and 100 fold | approximately 500 μM | 0.5 | ~6 | No difference in growth rate
[Cl][Mn][Cl] [Mn] | no effect | inhibit IRT1-dependent iron uptake |  |  |  |  | 
[Cl][Cu][Cl] [Cu] | no effect |  |  |  |  |  | 
